The subject of data set [1] is dysfunctional human CD8 T cells. The experiment in a line: In vitro model of human CD8 T cell dysfunction (chronic TCR plus TGFβ1 stimulation, day 28): effector functions, polyfunctionality, memory programs. In kind it is cell-based. The note with it: for effector functions of human TEX cells: FIGS. 49A-49E.
In a further data set the test system is myeloma cells. The note with it: cited from earlier work.
For data set [2] the following is noted: cited from earlier work.
Another data set addresses KDM5A and KDM5B. The note with it: cited from earlier work.
The test system of the next data set is H3K4me3. As to conditions: myeloma cells; cited from earlier work.
Data set [3] relates to B16-F10-GP33 melanoma cells. In words: In vitro tumor cell death of B16 melanoma cells. In kind it is cell-based. As to conditions: 24, 48 and 72 hours, different doses. An excerpt: Ordinary two-way ANOVA test, Dunnett's test. Error bars indicate SEM. N=4 replica of 2 independent experiments.
Another data set relates to P14 CD8 T cells. The note with it: mouse, in vivo.
Data set [4] concerns PyMT-OVA breast adenocarcinoma. The experiment in a line: Orthotopic breast cancer model (PyMT-OVA breast adenocarcinoma). In kind it is in vivo, mouse. The note with it: combined with PD-L1 blockade, compared to PD-L1 blockade only. An excerpt:
FIGS. 16A-16C show therapeutic blockade of KDM5A and KDM5B boosts the responses of anti-tumor CD8 T cells to ICB therapy.
(§1) Targeting KDM5B in melanoma cells leads to enhanced tumor rejection by derepressing the expression of endogenous retroviral elements in tumor cells and reducing immune evasion of tumor cells. These findings provide a strong rationale for testing the in vivo efficacy of a selective KDM5A/B inhibitor as an adjunctive treatment to ICB therapy in ICB-refractory tumors. Discussed herein is whether the pharmacological inhibition of KDM5A/B recovers the responses of anti-tumor CD8 T cells to ICB treatment during solid tumors. Utilized herein are two tumor models known to be refractory to PD-1/PD-L1 blockade therapy, including orthotopic OVA-expressing PyMT breast adenocarcinoma and GP33-expressing B16-F10 melanoma in C57BL/6 animals. One week following the adoptive transfer of Thy1.1+TCR-transgenic CD8 T cells (OVA-specific OT-I or GP33-specific P14 cells) into tumor-bearing animals, mono- or combined therapy using KDM5A/Bi plus anti-PD-L 1 treatment was started (FIG. 25A-25B). Changes in tumor growth was tracked and measure the quantity, phenotype, proliferative potential, and functional capacity of adoptively transferred anti-tumor CD8 T cells measured within tumors and draining lymph nodes using spectral cytometry as described herein. […]

Data set [5] deals with tumor-specific CD8 T cells. In words: Tumor-infiltrating lymphocyte analysis in CT2A-gp33 glioma model. In kind it is in vivo, mouse. As to conditions: combined with PD-L1 blockade. Here is the method: CT2A-gp33 Glioma Model: The efficacy of GSK467 therapy was tested using CT2A-gp33 glioma model with gp33-specific P14 CD8 T cells adoptively transferred on day 17-20. […] (FIGS. 38A-38C)

The test system of another data set is KDM6. As to conditions: cited from earlier work.
Data set [6] relates to other Jumonji family members. As to conditions: cited from earlier work.
The test system of data set [7] is Tprog, Tcyto and Tterm CD8 T cells. The note with it: mouse, in vivo.
The subject of the next data set is CT2A-gp33 glioma. In words: CT2A-gp33 glioma model. The note with it: combined with PD-L1 blockade; CD8-KO or Rag1-KO animals, P14 CD8 T cells transferred. In kind it is in vivo, mouse.
In a further data set the test system is B16-F10 melanoma. The experiment in a line: B16-F10 melanoma model. In kind it is in vivo, mouse. As to conditions: 5 mg/Kg, every 2 days i.p.
Text: as §1

Another data set has as its system AML cells. In words: Tumor-killing activity of treated dysfunctional human CD8 T cells (coculture with AML cells, 18 hr). In kind it is cell-based. The note with it: with TGFβ1 blockade (TGFBR1 blocker); 25 μM GSK467; days 14-28.
Another data set concerns TBX21 locus. The experiment in a line: DNA methylation at dysfunction-associated differentially methylated region, targeted Oxford Nanopore assay. It is filed as cell-based, human. As to conditions: GSK467 with or without TGFBR1 inhibitor (Repsox). The protocol:
To determine whether targeting H3K4 demethylation can reduce de novo DNA methylation programs at the effector function-related genes in human CD8 T cells, the changes in DNA methylation levels were assessed at the dysfunction-associated differentially methylated region in dysfunctional human CD8 T cells after GSK467 (KDM5A/B inhibitor) with or without TGFBR1 inhibitor (Repsox) treatment.

For data set [8], the system named is virus-specific exhausted CD8 T cells. It is filed as in vivo, mouse.
Another data set concerns TEX cells. As to conditions: cited from earlier work.
Another data set deals with other immune cells. The note with it: cited from earlier work.
The mark [9] stands for this setting: either GSK467 or C70, C70 25 μM, days 14-28.

Molecules are shown by their SMILES. Entries after “also recorded” stand apart in the source; their conditions may differ.

Consider four compounds from patent US20260315477A1, “THERAPEUTIC APPROACH TO BLOCK TERMINAL EXHAUSTION OF T CELLS AND SYNERGIZETHE EFFICACY OF T CELL IMMUNOTHERAPIES” (priority 2023, published 2026).

For `CCOC(=O)c1ccnc(CNCC(=O)N(CC)CCN(C)C)c1` [C70], the “effector functions of human TEX cells” value in data set [1] was “enhances effector functions of human TEX cells”. For the same compound, in data set [1] (setting [9]), the “polyfunctionality and memory expression programs” value was “significantly enhanced polyfunctionality and memory expression programs”. The antiproliferative effect entry in the data set on myeloma cells is given as “antiproliferative effect”. The “cell penetration / permeability” value in data set [2] is reported as “cell-permeable”. Also, the “KDM5A and KDM5B histone demethylase inhibition” value on KDM5A and KDM5B is listed as “potent”. Also, the H3K4me3 levels entry with H3K4me3 was “genome-wide elevation of H3K4me3 levels”.
Consider `O=c1nc(Oc2cnn(Cc3ccccc3)c2)[nH]c2cnccc12` [GSK467], for which the “tumor cell death, frequencies of dead B16 melanoma cells” value in data set [3] was “increases B16 melanoma tumor death in vitro”. The “proliferation response and long-lived memory function after ICB treatment” value with P14 CD8 T cells was “synergized their proliferation response and promote long-lived memory function after ICB treatment”. Moreover, the breast tumor control result in data set [4] was “significant breast tumor control”. Besides, in data set [5], the “frequencies of IFNG-secreting tumor-specific CD8 T cells” value is listed as “increased frequencies of IFNG-secreting tumor-specific CD8 T cells” and the “quantities of tumor-specific CD8 T cells” value is on record as “significant increase in the quantities of tumor-specific CD8 T cells”. For the same compound, in [1], the “effector functions of human TEX cells” value is given as “enhances effector functions of human TEX cells”. The “polyfunctionality and memory expression programs” value in data set [1] (setting [9]) was “significantly enhanced polyfunctionality and memory expression programs”. Further, the “cytolytic activity and effector functions of dysfunctional human T cells” value in data set [1] (in vitro, direct effects on CD8 T cells) is “enhances the cytolytic activity and effector functions of dysfunctional human T cells”. For the same compound, in [1] (late treatment), the “effector and memory programs in dysfunctional human CD8 T cells” value was “can recover effector and memory programs”. Also, the “effector cytokine secretion and expression of memory-related transcription factors” value in data set [1] (monotherapy, 25 μM GSK467, days 14-28) was “significantly restored effector cytokine secretion and expression of memory-related transcription factors”. In data set [1] (with TGFβ1 blockade (TGFBR1 blocker), 25 μM GSK467, days 14-28), the “polyfunctionality and memory expression programs” value is “further potentiated the reactivation of polyfunctionality and memory expression programs”. Also, in the data set on KDM6, the “inhibitory effects toward KDM6” value is on record as “no measurable inhibitory effects”. The “inhibitory effects toward other Jumonji family members” value in data set [6] is “no measurable inhibitory effects”. In addition, in data set [7], the “development of Tterm cells” value is recorded as “impeding the development of Tterm cells” and the “quantity of Tcyto cells” value is “increased the quantity of Tcyto cells”. For the same compound, the tumor control result in the data set with CT2A-gp33 glioma is listed as “significant tumor control”. Also, in the data set with B16-F10 melanoma (combination with PD-L1 blockade, days 12-20), the “tumor control, combination” value is “further potentiated with combination PD-L1 blockade therapy”. Further, in the data set on B16-F10 melanoma (monotherapy, days 12-20 post-tumor inoculation), the tumor control result is reported as “significant tumor control”. Moreover, the “cell penetration / permeability” value in data set [2] is on record as “cell penetrant”. Further, on KDM5A and KDM5B (role: inhibitor, stated for KDM5A and KDM5B together), the inhibition constant (Ki) was 10 nM. Moreover, in the data set with KDM5A and KDM5B (stated for KDM5A and KDM5B together), the half-inhibitory concentration (IC50) is 26 nM. The tumor-killing activity result with AML cells is “augmented tumor-killing activity”. Besides, the “acquisition of de novo DNA methylation marks at the TBX21 locus” value with TBX21 locus was “significantly reduced the acquisition of de novo DNA methylation marks at the TBX21 locus”. In data set [8] (mouse, in vivo), the “expansion of IFNG-secreting virus-specific CD8 T cells” value was “significant expansion of both Tprog and Tcyto cells, as well as IFNG-secreting virus-specific CD8 T cells”; the “expansion of Tprog and Tcyto cells” value is “significant expansion of both Tprog and Tcyto cells”; the “responses of virus-specific exhausted CD8 T cells to PD-L1 blockade” value is listed as “enhanced the responses of virus-specific TEX cells to PD-L1 blockade; also recorded: enhanced the responses of virus-specific exhausted CD8 T cells to PD-L1 blockade”. Also, the “TEX cell responses to ICB during chronic LCMV infection” value in [8] (with anti-PD-L1 (FIGS. 7A-7E)) is listed as “enhances TEX responses to ICB”.
Regarding `Cc1cccc(-c2[nH]ncc2-c2ccc3ncccc3n2)n1` [TGFBR1 blocker], the “effector functions of chronically stimulated CD8 T cells” value in data set [1] (TGFβ1 blockade alone, days 14-28) is given as “recovered effector functions of chronically stimulated CD8 T cells”.
As for `Nc1ncn([C@H]2C[C@H](O)[C@@H](CO)O2)c(=O)n1` [decitabine], in the data set with TEX cells, the “response of TEX cells, with ICB therapy” value was “synergizes with ICB therapy to rescue the response of TEX cells”. For the same compound, in the data set on other immune cells, the “cytotoxicity and adverse effects” value is reported as “highly cytotoxic drug that has adverse effects on other immune cells”; the selectivity result is “non-selective”.
